In the NIST ThermoML archive (doi:10.1016/j.jct.2017.07.004):
Numbers after ± are expanded uncertainties.

Experiment: xn = mol fraction of the nth substance listed
Details: 100 kPa, Liquid; for viscosity: Concentric cylinders viscometry; for mass density: Vibrating tube method

## CCC=O [propanal] + CCC(C)O
293.15 K, x1 = 0.0811
  viscosity: 3.49 ± 0.28 mPa·s
  mass density: 810.5 ± 1 kg/m3
293.15 K, x1 = 0.16
  viscosity: 3.29 ± 0.26 mPa·s
  mass density: 813.1 ± 1 kg/m3
293.15 K, x1 = 0.24
  viscosity: 3.06 ± 0.25 mPa·s
  mass density: 815.1 ± 1 kg/m3
293.15 K, x1 = 0.35
  viscosity: 2.72 ± 0.22 mPa·s
  mass density: 817 ± 1 kg/m3
293.15 K, x1 = 0.44
  viscosity: 2.42 ± 0.19 mPa·s
  mass density: 817.8 ± 1 kg/m3
293.15 K, x1 = 0.56
  viscosity: 2 ± 0.16 mPa·s
  mass density: 817.7 ± 1 kg/m3
293.15 K, x1 = 0.6499
  viscosity: 1.67 ± 0.13 mPa·s
  mass density: 816.7 ± 1 kg/m3
293.15 K, x1 = 0.7401
  viscosity: 1.34 ± 0.11 mPa·s
  mass density: 814.7 ± 1 kg/m3
293.15 K, x1 = 0.8501
  viscosity: 0.92 ± 0.07 mPa·s
  mass density: 810.8 ± 1 kg/m3
293.15 K, x1 = 0.9401
  viscosity: 0.58 ± 0.05 mPa·s
  mass density: 806.5 ± 1 kg/m3
293.15 K, x1 = 1
  viscosity: 0.34 ± 0.03 mPa·s
  mass density: 802.4 ± 1 kg/m3
298.15 K, x1 = 0.0811
  viscosity: 2.89 ± 0.23 mPa·s
  mass density: 806 ± 1 kg/m3
298.15 K, x1 = 0.16
  viscosity: 2.73 ± 0.22 mPa·s
  mass density: 808.4 ± 1 kg/m3
298.15 K, x1 = 0.24
  viscosity: 2.55 ± 0.2 mPa·s
  mass density: 810.3 ± 1 kg/m3
298.15 K, x1 = 0.35
  viscosity: 2.27 ± 0.18 mPa·s
  mass density: 811.8 ± 1 kg/m3
298.15 K, x1 = 0.44
  viscosity: 2.03 ± 0.16 mPa·s
  mass density: 812.3 ± 1 kg/m3
298.15 K, x1 = 0.56
  viscosity: 1.68 ± 0.14 mPa·s
  mass density: 811.8 ± 1 kg/m3
298.15 K, x1 = 0.6499
  viscosity: 1.41 ± 0.11 mPa·s
  mass density: 810.5 ± 1 kg/m3
298.15 K, x1 = 0.7401
  viscosity: 1.14 ± 0.09 mPa·s
  mass density: 808.4 ± 1 kg/m3
298.15 K, x1 = 0.8501
  viscosity: 0.8 ± 0.06 mPa·s
  mass density: 804.5 ± 1 kg/m3
298.15 K, x1 = 0.9401
  viscosity: 0.52 ± 0.04 mPa·s
  mass density: 800 ± 1 kg/m3
298.15 K, x1 = 1
  viscosity: 0.33 ± 0.03 mPa·s
  mass density: 796.2 ± 1 kg/m3
303.15 K, x1 = 0.0811
  viscosity: 2.41 ± 0.19 mPa·s
  mass density: 801.1 ± 1 kg/m3
303.15 K, x1 = 0.16
  viscosity: 2.27 ± 0.18 mPa·s
  mass density: 803.2 ± 1 kg/m3
303.15 K, x1 = 0.24
  viscosity: 2.12 ± 0.17 mPa·s
  mass density: 804.8 ± 1 kg/m3
303.15 K, x1 = 0.35
  viscosity: 1.89 ± 0.15 mPa·s
  mass density: 806 ± 1 kg/m3
303.15 K, x1 = 0.44
  viscosity: 1.69 ± 0.14 mPa·s
  mass density: 806.5 ± 1 kg/m3
303.15 K, x1 = 0.56
  viscosity: 1.41 ± 0.11 mPa·s
  mass density: 805.7 ± 1 kg/m3
303.15 K, x1 = 0.6499
  viscosity: 1.19 ± 0.1 mPa·s
  mass density: 804.3 ± 1 kg/m3
303.15 K, x1 = 0.7401
  viscosity: 0.97 ± 0.08 mPa·s
  mass density: 802 ± 1 kg/m3
303.15 K, x1 = 0.8501
  viscosity: 0.69 ± 0.06 mPa·s
  mass density: 798 ± 1 kg/m3
303.15 K, x1 = 0.9401
  viscosity: 0.46 ± 0.04 mPa·s
  mass density: 794 ± 1 kg/m3
303.15 K, x1 = 1
  viscosity: 0.31 ± 0.03 mPa·s
  mass density: 790.3 ± 1 kg/m3
308.15 K, x1 = 0.0811
  viscosity: 2.02 ± 0.16 mPa·s
308.15 K, x1 = 0.16
  viscosity: 1.9 ± 0.15 mPa·s
308.15 K, x1 = 0.24
  viscosity: 1.77 ± 0.14 mPa·s
308.15 K, x1 = 0.35
  viscosity: 1.58 ± 0.13 mPa·s
308.15 K, x1 = 0.44
  viscosity: 1.41 ± 0.11 mPa·s
308.15 K, x1 = 0.56
  viscosity: 1.18 ± 0.1 mPa·s
308.15 K, x1 = 0.6499
  viscosity: 1.01 ± 0.08 mPa·s
308.15 K, x1 = 0.7401
  viscosity: 0.82 ± 0.07 mPa·s
308.15 K, x1 = 0.8501
  viscosity: 0.6 ± 0.05 mPa·s
308.15 K, x1 = 0.9401
  viscosity: 0.42 ± 0.03 mPa·s
308.15 K, x1 = 1
  viscosity: 0.3 ± 0.03 mPa·s
